PMC12463120, “Phenylalanine‐Based DNA‐Encoded Chemical Libraries for the Discovery of Potent and Selective Small Organic Ligands Against Markers of Cancer and Immune Cells” (Advanced Science, 2025)
“Also recorded” adds a separate entry of the source.

System: NK-92 cells
Assay: In vitro interferon-gamma release assay on NK-92 cells
Assay type: cell-based, human
Conditions: serial dilution from 7.5 µM, 24 h
Procedure: plate (20 µL/well). Test compounds (300 nM, in 175 µL of FACS buffer) were added to the wells containing the beads. Plates were further incubated in the dark at room temperature for 1 hour and subsequently centrifuged at 2’500 rpm at 4 °C for 3 min. Beads were washed and resuspended in FACS buffer (200 µL). Data were acquired halting the measurement at 10’000 events on a Cytoflex S flow cytometer (Beckman Coulter) and analyzed using the FlowJo software v10 (BD Biosciences).
2.19 In vitro interferon-gamma release assay
Compounds 26 and 30 were tested for their ability to induce interferon-gamma (IFN-γ) release upon incubation with NK-cells. NK-92 cells were initially starved for 4 h in plain RPMI medium. […] After 24 h, cell-free supernatants were collected, and the concentration of IFN-γ was measured using the ELISA MAXTM Set Human IFN-γ kit (BioLegend). […]
The sections were blocked with 20% FCS (Invitrogen) and 3% BSA in PBS (pH 7.4) for 30 min and washed three times with PBS (pH 7.4). […] Images were recorded on a CR-35 Bio scanner and processed with the AIDA image analysis […]
2.21 Quantitative in vivo biodistribution studies […]
Figure S39. […] After 24 hours of incubation, IFN-γ levels in the culture supernatant were measured by ELISA. […]

For CC(C)Oc1ccc(-c2cccc(C[C@H](NC(=O)c3ccccc3-c3ccc(C(F)(F)F)cc3)C(=O)N[C@@H](CCCCNC(=S)Nc3ccc4c(c3)C(=O)OC43c4ccc(O)cc4Oc4cc(O)ccc43)C(=O)O)c2)c(F)c1 [compound 30], which “IFN-γ release by NK-92 cells” value is on record?
The value was “did not induce IFN-γ release; also recorded: not found to induce the release”.
